From the supplement of paper PMC11208160

Experiment: recombinant UMI read abundance after kanamycin selection (control-corrected) (log10(CPM+1)); higher = more efficient recombination; extreme values may be limits of the assay; sequences stand for … in AGTGCAGAGAAAATCGGCCAGTTTTCTCTGCCTGCAGTCCGCATGCCGTGGGACCCCTTGGGTTCTAACCTGTTGCCTAGATTTATGCAGCGGACTGCCTTTCTCCCAAAGTGATAAACCGG…AGGTTGGTTTCACT; site = the 11-nt donor
Experimental: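 Pooled E. coli donor-specificity screen for the IS621 bridge recombinase. Each library member carries a reprogrammed 11-nt donor and a full-length LE bridge RNA expressed in cis from the natural promoter, with a paired donor-binding loop (8-nt LDG + 4-nt RDG) and a target-binding loop fixed to T5. It is co-electroporated with a T5 target plasmid; recombinase is induced with 0.07 mM IPTG and recombinants are selected on kanamycin. UMIs are counted as CPM, averaged over two biological replicates and corrected by the unselected control. Molecule = full bridge RNA written as DNA, built from the T5 scaffold: LDG = donor specificity nt 1-8, RDG = reverse complement of nt 8-11.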
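Note: IS621 bridge recombinase in Escherichia coli cells against a fixed T5 target plasmid.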

Sequence	recombinant UMI read abundance (log10)
ACGAAGCCATGGACCGGTTTTCCCGGTAATCCGTATTTGGG (site CCGAAGCCTCC)	0.00571
ACGAAGCCATGGACCGGTTTTCCCGGTAATCCGTATTTGGG (site GCGAAGCCTCC)	0.0145
ACGAAGCCATGGACCGGTTTTCCCGGTAATCCGTATTTGGG (site TCGAAGCCTCC)	0.113
ACGACGCCATGGACCGGTTTTCCCGGTAATCCGTATTTGCT (site ACGACGCCTAG)	0
ACGAGAACATGGACCGGTTTTCCCGGTAATCCGTATTTGCC (site ACGAGAACTGG)	2.44
ACGAGTTCATGGACCGGTTTTCCCGGTAATCCGTATTTGGA (site ACGAGTTCTTC)	2.41
ACGATAGCATGGACCGGTTTTCCCGGTAATCCGTATTTGTC (site ACGATAGCTGA)	2.92
ACGATGACATGGACCGGTTTTCCCGGTAATCCGTATTTGCA (site ACGATGACTTG)	3.16
ACGATGACATGGACCGGTTTTCCCGGTAATCCGTATTTGCA (site AGGAAGACTTG)	0.907
ACGCACGCATGGACCGGTTTTCCCGGTAATCCGTATTTGGG (site AAGCACGCTCC)	0.0265
ACGCACGCATGGACCGGTTTTCCCGGTAATCCGTATTTGGG (site ACGCACGCTCC)	0.00911
ACGCACGCATGGACCGGTTTTCCCGGTAATCCGTATTTGGG (site AGGCACGCTCC)	0.00698
ACGCACGCATGGACCGGTTTTCCCGGTAATCCGTATTTGGG (site ATGCACGCTCC)	0.12
ACGCCACCATGGACCGGTTTTCCCGGTAATCCGTATTTGGG (site ACGCCACCTCC)	0.011
ACGCCTCCATGGACCGGTTTTCCCGGTAATCCGTATTTGTG (site ACGCCTCCTCA)	0.0426
ACGCGCACATGGACCGGTTTTCCCGGTAATCCGTATTTGCG (site ACGCGCACTCG)	1.97
ACGGCCCCATGGACCGGTTTTCCCGGTAATCCGTATTTGTG (site ACGGCCCCTCA)	0.0276
ACGGCCGCATGGACCGGTTTTCCCGGTAATCCGTATTTGAA (site ACGGCCGCTTT)	1.43

Sequence	recombinant UMI read abundance (log10)
ACGGCGTCATGGACCGGTTTTCCCGGTAATCCGTATTTGGT (site ACGGCGTCTAC)	2.01
ACGGGACCATGGACCGGTTTTCCCGGTAATCCGTATTTGTC (site ACGGGACCTGA)	0
ACGGGCGCATGGACCGGTTTTCCCGGTAATCCGTATTTGTT (site ACGGGCGCTAA)	1.39
ACGGTAGCATGGACCGGTTTTCCCGGTAATCCGTATTTGCA (site ACAGTATCTTG)	2.05
ACGGTAGCATGGACCGGTTTTCCCGGTAATCCGTATTTGCA (site ACGGTAGCTTG)	2.74
ACGTAGCCATGGACCGGTTTTCCCGGTAATCCGTATTTGCC (site ACGTAGCCTGG)	0.17
ACGTCACCATGGACCGGTTTTCCCGGTAATCCGTATTTGTA (site ACGTCACCTTA)	0.0617
ACGTGCACATGGACCGGTTTTCCCGGTAATCCGTATTTGGG (site ACGTGCACTCC)	0.0159
ACGTGGCCATGGACCGGTTTTCCCGGTAATCCGTATTTGAG (site ACGTGGCCTCT)	0.0124
ACGTGTACATGGACCGGTTTTCCCGGTAATCCGTATTTGTT (site ACGTGTACTAA)	1.47
ACGTGTTCATGGACCGGTTTTCCCGGTAATCCGTATTTGAC (site ACGTGTTCTGT)	2.1
ACGTTCCCATGGACCGGTTTTCCCGGTAATCCGTATTTGTG (site AAGTTCCCTCA)	0.0189
ACGTTCCCATGGACCGGTTTTCCCGGTAATCCGTATTTGTG (site ACGTTCCCTCA)	0.0247
ACGTTCCCATGGACCGGTTTTCCCGGTAATCCGTATTTGTG (site AGGTTCCCTCA)	0.0827
ACGTTCCCATGGACCGGTTTTCCCGGTAATCCGTATTTGTG (site ATGTTCCCTCA)	0.0196
ACGTTTACATGGACCGGTTTTCCCGGTAATCCGTATTTGCT (site ACGTTTACTAG)	2.06
ACGTTTACATGGACCGGTTTTCCCGGTAATCCGTATTTGCT (site CCGTTTACTAG)	1.53
ACGTTTACATGGACCGGTTTTCCCGGTAATCCGTATTTGCT (site GCGTTTACTAG)	0.666
